Publication PMC8202924, “Emodepside targets SLO-1 channels of Onchocerca ochengi and induces broad anthelmintic effects in a bovine model of onchocerciasis” (PLoS Pathogens, 2021)

What was measured:
[1] = rat, over four weeks orally in diet; cited from earlier work
Source text: Blood glucose has been identified as a simple biomarker for emodepside exposure in humans.

[2] = tested on: Onchocerca ochengi adult female worms; assay: MTT assay for metabolic activity of worms from nodules; type: in vivo; conditions: MRSM, 4 mg/kg every other day for 3 days; day 550
Experimental: (§1) Worms from a second unfixed nodule (at the same timepoints listed above) were subjected to a 3-(4,5-dimethylthiazol-2-yl)-2,5-diphenyltetrazolium bromide (MTT) assay for metabolic activity, in which the insoluble formazan product was dissolved in DMSO and quantified colorimetrically at 620 nm in a microplate reader (model LT4500, Labtech, Heathfield, East Sussex, UK). Finally, dermal microfilarial densities were determined by incubation of skin biopsies (in triplicate per animal per timepoint) and normalized to 100 mg skin [59].

[3] = tested on: Onchocerca ochengi adult male worms; assay: Ex vivo visual motility assessment of adult male worms from nodules; type: in vivo; conditions: MRSM, 4 mg/kg every other day for 3 days; day 550; n = 1
Experimental: (§2) Tattooed nodules were removed under local anesthesia (lidocaine-epinephrine) on study days -1, 90, 180–190, 270–290, 360 and 550 in a randomized order as previously described. Nodules were trimmed of excess tissue and up to four nodules per animal were processed separately as follows: (1) stored frozen at –80°C for PK analysis (up to day 14 only); (2) injected in toto with 10% neutral-buffered formalin and stored at 4°C for histopathology (up to day 290 only); or (3) dissected immediately in phosphate-buffered saline to separate adult male and female worms. The anterior end of the female worm (which even in viable specimens is the only motile part of the parasite) was removed from the worm mass and incubated alongside intact male worms for 30 min at 37°C for visual motility assessment on a three-point scale. The remaining portion of the female worm mass was subjectively scored for fecundity on a four-point scale (0, uteri empty or worm structure degraded; 1, low; 2, intermediate; 3, normal) by examining the uterine contents microscopically in situ. This was followed by a fully quantitative embryogram to enumerate oocytes, embryonic stages and intrauterine Mf as described previously.
The second class of PD endpoint considered was worm motility, which was recorded as a three-class categorical variable and quantified here as a fraction of normal worm motility. […]

[4] = tested on: Onchocerca ochengi microfilariae; assay: Dermal microfilarial density in naturally infected cattle; type: in vivo; conditions: MRSM, 4 mg/kg every other day for 3 days
Experimental: By group, the geometric mean Mf load per 100 mg skin ranged from 100 to 500 (Table 1); two animals found to be negative for skin Mf were distributed in different groups. Eighteen preselected nodules per animal were marked with tattoo ink, and their positions were recorded on a hardcopy ‘hide map’ and by digital video [57]. All assessments of drug efficacy were conducted by individuals blinded to the treatment groups. The study was conducted unmasked. All study personnel provided a signed declaration to conduct the study according to the specified protocol. Verum or vehicle was administered as described in the dose confirmation study.
as §1

[5] = tested on: Onchocerca ochengi adult female worms; assay: Embryogram (uterine contents of female worms from nodules); type: in vivo; conditions: MRSM, 4 mg/kg every other day for 3 days; P = 0.005
Experimental: as §2
The same principle was applied to the analysis of the uterine contents. […] Over all doses and individual animals, an effect size (m) and corresponding statistics were calculated using R’s lm function.

[6] = tested on: Onchocerca ochengi adult worms in nodules; assay: Histopathology of nodules, worm integrity scores after Striebel; type: in vivo; design: key to Cumulative histopathological score, representative section: sum of 5 organ grades: 5 = healthy, 15 = max damage, 16 = debris/none; conditions: MRSM
Source text: Nodules for histopathology (n = 72) were collected up to day 290, after which few were available in the melarsomine (MRSM) group. For consistency, nodules were taken from the same three animals in each experimental group at each timepoint. Formalin-fixed nodules were embedded in paraffin, sectioned, and stained with hematoxylin and eosin or Giemsa as previously described or with Lendrum’s carbol chromotrope to specifically stain eosinophils.
Histological sections of nodules were scored by a single observer blinded to treatment group using the form proposed by Striebel, which was developed based on observations of O. volvulus (human) and Onchocerca gibsoni (bovine) nodules. In the current study, O. ochengi nodules were graded by applying a similar system in which the integrity of five structures or organs (cuticle, hypodermis, longitudinal muscle, pseudocoelomic cavity and gut) were classified through microscopical assessment of specific anatomical features (e.g., vacuoles in the hypodermis or host cells visible in the pseudocoelomic cavity) according to the categories in Table A in S1 Text. These grades were used to assign a pathology score for each aspect of parasite anatomy examined. Scores for all five structures or organs were then added together to produce a cumulative overall score, with a minimum score of 5 for parasite sections judged to be healthy across all five structures or organs. Since parasite sections showing extensive damage across all five anatomical regions could score a maximum of 15, sections containing cuticular debris only, or where parasites were unidentifiable in the section, were allocated a total score of 16. Where sections of male worms were present in the nodule these were scored separately to the females. Some sections contained more than one conjoined nodule. In these cases, females were also scored and recorded individually.
The effect of different treatments relative to either (a) no treatment controls or (b) pre-treatment observations of parasite integrity was analyzed using linear mixed effects models with the nonlinear mixed effects model package in R [63, 64]. Overall scores for parasite integrity were modelled as the response variable compared with (a) treatment groups for each timepoint and (b) different timepoints for each respective treatment group. In both cases, animal identity was modelled as a random effect to account for repeat observations taken from the same individual, and results were adjusted using a post-hoc Bonferroni correction for multiple comparisons. Similarly, to assess the effect of different treatments on cellular infiltrates over time, total PMN or eosinophil counts per high-power field and eosinophils as a percentage of the total PMN population were each modelled as […] variables compared with (a) treatment groups for each timepoint and (b) different timepoints for each respective treatment group.

[7] = 4 mg/kg every other day for 3 days, day 90
[8] = 4 mg/kg every other day for 3 days, day 180
[9] = 4 mg/kg every other day for 3 days, day 290

Compound: CC(C)C[C@H]1C(=O)O[C@H](Cc2ccc(N3CCOCC3)cc2)C(=O)N(C)[C@@H](CC(C)C)C(=O)O[C@H](C)C(=O)N(C)[C@@H](CC(C)C)C(=O)O[C@H](Cc2ccc(N3CCOCC3)cc2)C(=O)N(C)[C@@H](CC(C)C)C(=O)O[C@H](C)C(=O)N1C [emodepside]
- no-observed-adverse-effect level [1]: 4 to 5 mg/kg

Compound: NCCS[As](SCCN)c1ccc(Nc2nc(N)nc(N)n2)cc1 [melarsomine]
- MTT reduction, worms recovered [2]: no intact worms were recovered
- Fraction of normal adult male worm motility [3]: 0%
- Mf density over time [4]: complete clearance after one year
- AUC for all embryonic stages [5]: significantly reduced
- Cumulative pathology scores of worm sections ([6]; 4 mg/kg every other day for 3 days, all post-treatment timepoints, P <0.05): significantly higher pathology scores than PCBO
- Cumulative histopathological worm score, mixed-effects coefficient (SE) vs placebo [6, 7]: 8.00 (2.01)
- Cumulative histopathological worm score, mixed-effects coefficient (SE) vs pre-treatment (day 1) [6, 7]: 9.45 (1.81)
- Degenerate nodules (no parasite sections or only cuticular fragments), of three nodules [6, 7]: 1
- Mean histopathological score, cuticle [6, 7]: 3.00
- Mean histopathological score, gut [6, 7]: 3.33
- Mean histopathological score, hypodermis [6, 7]: 3.33
- Mean histopathological score, longitudinal muscle [6, 7]: 2.67
- Mean histopathological score, pseudocoleomic cavity [6, 7]: 3.33
- Cumulative histopathological worm score, mixed-effects coefficient (SE) vs placebo [6, 8]: 7.31 (2.41)
- Cumulative histopathological worm score, mixed-effects coefficient (SE) vs pre-treatment (day 1) [6, 8]: 8.12 (1.81)
- Degenerate nodules (no parasite sections or only cuticular fragments), of three nodules [6, 8]: 2
- Mean histopathological score, cuticle [6, 8]: 3.33
- Mean histopathological score, gut [6, 8]: 3.00
- Mean histopathological score, hypodermis [6, 8]: 3.00
- Mean histopathological score, longitudinal muscle [6, 8]: 3.00
- Mean histopathological score, pseudocoleomic cavity [6, 8]: 3.33
- Cumulative histopathological worm score, mixed-effects coefficient (SE) vs placebo [6, 9]: 8.67 (2.97)
- Cumulative histopathological worm score, mixed-effects coefficient (SE) vs pre-treatment (day 1) [6, 9]: 11.11 (1.81)
- Degenerate nodules (no parasite sections or only cuticular fragments), of three nodules [6, 9]: 3
- Mean histopathological score, cuticle [6, 9]: 4.00
- Mean histopathological score, gut [6, 9]: 4.00
- Mean histopathological score, hypodermis [6, 9]: 4.00
- Mean histopathological score, longitudinal muscle [6, 9]: 4.00
- Mean histopathological score, pseudocoleomic cavity [6, 9]: 4.00
- Cumulative histopathological score, representative section ([6]; day 290, animal B0435, degenerate nodule, no parasites): 16
